Experimental data reported in ChEMBL document CHEMBL3045368, “Design, synthesis, and biological activities of novel 2-cyanoacrylates containing oxazole, oxadiazole, or quinoline moieties” (2009).

Tests used:
Type in all cases: functional
[1] = tested on: Brassica napus; experiment: Herbicidal activity against Brassica napus (oilseed rape) assessed as inhibition of herb growth at 1.5 kg/ha during preemergence treatment protocol; conditions: pre-emergence, read-out: GI
[2] = tested on: Amaranthus retroflexus; experiment: Herbicidal activity against Amaranthus retroflexus assessed as inhibition of herb growth at 1.5 kg/ha during preemergence treatment protocol; conditions: pre-emergence, read-out: GI
[3] = tested on: Digitaria sanguinalis; experiment: Herbicidal activity against hairy Digitaria sanguinalis (hairy crabgrass) assessed as inhibition of herb growth at 1.5 kg/ha during postemergence treatment protocol; conditions: post-emergence, read-out: GI
[4] = tested on: Medicago sativa; experiment: Herbicidal activity against Medicago sativa (alfalfa) assessed as inhibition of herb growth at 1.5 kg/ha during postemergence treatment protocol; conditions: post-emergence, read-out: GI
[5] = tested on: Brassica napus; experiment: Herbicidal activity against Brassica napus (oilseed rape) assessed as inhibition of herb growth at 1.5 kg/ha during postemergence treatment protocol; conditions: post-emergence, read-out: GI
[6] = tested on: Amaranthus retroflexus; experiment: Herbicidal activity against Amaranthus retroflexus assessed as inhibition of herb growth at 1.5 kg/ha during postemergence treatment protocol; conditions: post-emergence, read-out: GI
[7] = tested on: Digitaria sanguinalis; experiment: Herbicidal activity against hairy Digitaria sanguinalis (hairy crabgrass) assessed as inhibition of herb growth at 1.5 kg/ha during preemergence treatment protocol; conditions: pre-emergence, read-out: GI
[8] = tested on: Medicago sativa; experiment: Herbicidal activity against Medicago sativa (alfalfa) assessed as inhibition of herb growth at 1.5 kg/ha during preemergence treatment protocol; conditions: pre-emergence, read-out: GI
[9] = tested on: Cucumis sativus; experiment: Plant growth regulatory activity in Cucumis sativus (cucumber) seeds assessed as stimulation of radicle growth level at 10 mg/mL

Row | SMILES | inhibition of growth at 1500 g/ha [1] [%] | inhibition of growth at 1500 g/ha [2] [%] | inhibition of growth at 1500 g/ha [3] [%] | inhibition of growth at 1500 g/ha [4] [%] | inhibition of growth at 1500 g/ha [5] [%] | inhibition of growth at 1500 g/ha [6] [%] | inhibition of growth at 1500 g/ha [7] [%] | inhibition of growth at 1500 g/ha [8] [%] | Activity [9] [%]
1 | CCOCCOC(=O)/C(C#N)=C(\NCc1ncc(C)o1)SC | 0 | 43.9 | 10 | 0 | 10 | 100 | 0 | 0 | 
2 | CCOCCOC(=O)/C(C#N)=C(\NCc1ncc(C(C)C)o1)SC | 10 | 5 | 0 | 0 | 5 | 26.8 | 0 | 0 | 63.7
3 | CCOCCOC(=O)/C(C#N)=C(\NCc1ncc(C(C)C)o1)C(C)C | 52.7 | 0 | 10 | 15 | 100 | 80.5 | 0 | 0 | 98.2
4 | CCOCCOC(=O)/C(C#N)=C(\NCc1nc(-c2ccc(C(F)(F)F)cc2)no1)SC | 0 | 0 | 37.5 | 0 | 100 | 0 | 0 | 0 | 
5 | CCOCCOC(=O)/C(C#N)=C(\NCc1nc(-c2ccc(C(F)(F)F)cc2)no1)C(C)C | 48.4 | 50.3 | 57.5 | 43.2 | 100 | 100 | 10 | 0 | 
6 | CCOCCOC(=O)/C(C#N)=C(\NCc1nc(-c2ccc(F)cc2)no1)SC | 10 | 0 | 10 | 0 | 15 | 0 | 0 | 0 | 
7 | CCOCCOC(=O)/C(C#N)=C(\NCc1nc(-c2ccc(F)cc2)no1)C(C)C | 88 | 0 | 82.5 | 10 | 100 | 100 | 0 | 0 | 
8 | CCOCCOC(=O)/C(C#N)=C(/CC)NCc1nc(-c2ccc(F)cc2)no1 | 15 | 0 | 0 | 0 | 0 | 0 | 0 | 0 | 
9 | CCOCCOC(=O)/C(C#N)=C(\NCc1ccc2ccccc2n1)SC | 0 | 0 | 0 | 15 | 35.6 | 0 | 0 | 0 | 60
10 | CCOCCOC(=O)/C(C#N)=C(/CC)NCc1ccc2ccccc2n1 | 0 | 20 | 0 | 0 | 8.5 | 0 | 0 | 0 | 95.4
